Measured values reported in PMC6341082 (Translational Psychiatry, 2019).

Legend:
[1] = test system: Adnp+/- mice; test: Object recognition test; assay type: in vivo, mouse; conditions: male Adnp+/+ mice (Supplemental Fig. S2A, B)
Procedure: Experiments were performed as previously described[8],[30],[40]. Three–six-month-old male mice were used, and NAP-CB was administered once daily (0.5 µg/5 µl/mouse) for one month. The behavioral assays were then initiated together with a continuous drug application. For detailed description of the object recognition test and the social approach task, please see supplemental materials and methods. In the odor discrimination test, odors were presented on a suspended cotton swab to the test mouse placed into the clean cage with fresh shavings. Each mouse was tested during three consecutive 2-min periods for each odor, with 2-min intervals between presentations. The time that the mouse smelled the swab was recorded (beginning whenever the animal oriented its nostrils toward the cotton swab, within 2 cm or less)[8],[30]. […] Data are expressed as mean ± SEM.
Object recognition: The test included two consecutive days of habituation (5 min per day) and the experimental day which consisted of the three phases. […] The time spent sniffing/touching each object was measured. Mouse movement and exploratory behavior were tracked and recorded using the EthoVision XT video tracking system and software (Noldus Inc. Leesburg, VA). […]

[2] = test system: Adnp+/- mice; test: Social approach task (social recognition and social memory); assay type: in vivo, mouse
Procedure: (§1) Experiments were performed as previously described[8],[30],[40]. Three–six-month-old male mice were used, and NAP-CB was administered once daily (0.5 µg/5 µl/mouse) for one month. The behavioral assays were then initiated together with a continuous drug application. For detailed description of the object recognition test and the social approach task, please see supplemental materials and methods. In the odor discrimination test, odors were presented on a suspended cotton swab to the test mouse placed into the clean cage with fresh shavings. Each mouse was tested during three consecutive 2-min periods for each odor, with 2-min intervals between presentations. The time that the mouse smelled the swab was recorded (beginning whenever the animal oriented its nostrils toward the cotton swab, within 2 cm or less)[8],[30]. The hanging wire test measuring the strength of the mouse paws by using the latency to fall off an inverted cage lid (placed 50 cm above the surface) onto a soft bedding (maximum time 90 sec), was performed as previously described[5],[40]. Data are expressed as mean ± SEM.
Social approach: A plexiglas box was divided into three adjacent chambers, each 20 cm (length) × 40.5 cm (width) × 22 cm (height), separated by two removable doors. Steel wire pencil cups (10.16 cm (diameter), 10.8 cm (height)), www.kitchen-plus.com, were used as both containment for the target mice and as inanimate objects (weights prevented the mice from overturning the cups). […] The next day, each subject mouse was tested in an experiment with three phases, each 10-min long (measured with a simple timer): I and II, the habituation phases (ensuring no bias), and III, the experimental phase. […] Mouse movement and exploratory behavior were tracked and recorded using the EthoVision XT video tracking system and software (Noldus Inc. Leesburg, VA). The discrimination capacity (social memory) was analyzed using the formula: D2 = (b-a)/(b+a), where ‘a’ designated the time of exploration of the familiar mouse and 'b' designated the time of exploration of the novel mouse.

[3] = test system: Adnp+/- mice; test: Odor discrimination test; assay type: in vivo, mouse
Procedure: as §1, with “Three–six-month-old male mice were used, and NAP-CB was administered once daily (0.5 µg/5 µl/mouse) for one month.” left out

[4] = test system: Adnp+/- mice; test: Hanging wire test; assay type: in vivo, mouse; conditions: significant vs vehicle
Procedure: as §1, with “Three–six-month-old male mice were used, and NAP-CB was administered once daily (0.5 µg/5 µl/mouse) for one month.” left out

[5] = test system: hippocampus of Adnp+/- mice; test: Diffusion tensor imaging (DTI) MRI of chronically treated brains; assay type: in vivo, mouse
Text: Seven–eight-month-old male mice underwent MRI on a 7.0 T/30 spectrometer (Bruker, Rheinstetten, Germany) using a volume coil for excitation and a rat quadrature coil for acquisition. The MRI protocol used here was the DTI.
DTI was obtained using a diffusion-weighted (DW) spin-echo echo-planar-imaging (EPI) pulse sequence with the following parameters: TR/TE = 4000/25 ms, Δ/δ = 10/4.5 ms, 4 EPI segments and 32 non-collinear gradient directions with a single b value (1000 sec/mm^2) and two images with b value of 0 sec/mm^2 (referred to as b0). Geometrical parameters were: 24 slices of 0.5 mm thickness, matrix size of 128 × 128 and FOV of […]). The imaging protocol was repeated three times for signal averaging and to compensate for acquisition where significant head motion was observed. Image analysis included DTI analysis of the DW-EPI images to produce the mean diffusivity (MD) and fractional anisotropy (FA) indexed maps following a two-way ANOVA with Tukey post-hoc test.

[6] = test system: Slc17a7 gene encoding VGLUT1; test: Gene expression analysis (quantitative RT-PCR); assay type: in vivo, mouse
Procedure: Hippocampal and cerebral cortical RNA of mouse that were 7.5-month-old were extracted using TRI Reagent® (T9424, Sigma-Aldrich, MO, USA). A volume of 1 μg RNA/sample was then subjected to reverse transcription (RT) using qScript cDNA Synthesis Kit (Quanta Biosciences, Gaithersburg, MD, USA). Further Real-time PCR analysis was performed using PerfeCta^TM SYBR® Green FastMix^TM, Low ROX^TM (Cat. No. 95074–012, Quanta Biosciences, Gaithersburg, MD, USA) and the QuantStudio 12 K Flex Real-Time PCR System (Thermo Fisher Scientific, Waltham, MA, USA). RNA expression levels were determined using specific mouse primers: Slc17a7 gene encoding VGLUT1, sense 5′-[…]-3′, anti-sense 5′-[…]-3′. Hypoxanthine-guanine phosphoribosyltransferase (Hprt) was selected as a stable reference gene with appropriate primers for mouse, sense 5′-[…]-3′, anti-sense 5′-[…]-3′. Results are presented as 2^-ΔCT[42].

[7] = test system: VGLUT1; test: Immunohistochemistry; assay type: in vivo, mouse; conditions: male Adnp+/- mice
Procedure: Immunohistochemistry was carried out as previously described. Briefly, paraffin sections were deparaffinized, rehydrated in graded alcohols, and antigen retrieval was performed with citrate buffer pH 6. Endogenous peroxidase was blocked with 3% H2O2 in methanol and was followed by incubation in the appropriate blocking buffer for 30 min. Sections were incubated overnight at 4 °C with the primary antibodies against VGLUT1 (Santa Cruz Biotechnology, sc-13320). The secondary antibody used was Rabbit Anti-Goat IgG (EMD Millipore, AP106B). Immunoreactions were visualized with the aim of Avidin-Peroxidase (Sigma- Aldrich Chemical), and 3,3′-Diaminobenzidine (DAB, brown color, Sigma-Aldrich Chemical) was utilized as chromogen. Sections were then counterstained with hematoxylin (light blue color).
Sections were further examined under optical microscope Zeiss Axioplan-2 with the aid of a CCD camera (Nikon DS-5M) for observations of the slides. In average, 25 optical fields were examined from each group under a magnification of ×40. Measurements were performed with Image J software (1.43 u) in the areas of the hippocampus and the cortex. The results were expressed as area/mm^2 (as previously described[14]), representing the area of DAB positive signal in each photo divided by the total area of the same photo. An additional parameter measured was the Integrated Density, calculating and displaying […]: the product of Area and Mean Gray Value.

[8] = test system: patients; conditions: cited from earlier work
Text: Together, these studies attest to preclinical efficacy, holding a promise for clinical effectiveness. […] Nevertheless, in a study performed in severely affected individuals suffering from progressive supranuclear palsy (PSP), belonging to the family of rapidly progressing frontotemporal neurodegener ...

[9] = test system: Adnp deficiency in mice; set-up: method as in PMID 26782054; conditions: cited from earlier work

Substance: NAPVSIPQ
- object recognition, relative discrimination, short and long retention choice phases, NAP- vs CB-treated [1]: no significant differences
- social recognition, sniffing time mouse vs cup ([2]; NAP-treated Adnp+/- male mice, p < 0.001 vs. cup): significant differences between sniffing time of the cup (c) and mouse (M)
- social memory (D2, novel vs familiar mouse) ([2]; female Adnp+/- mice, n = 3-4 per group, p < 0.001 vs vehicle (Supplemental Fig. S2D)): improved social memory
- social recognition, preference mouse vs object ([2]; females (Supplemental Fig. S2C), n = 3-4 per group): significant preference to mice rather than objects
- total odor sniffing time (AUC) ([3]; female Adnp+/- mice, NAP vs CB vehicle, p < 0.05): significantly reduced
- odor discrimination ability (novel vs. familiar odor), differences between experimental groups ([3]; females (Supplemental Fig. S2E)): no significant differences
- total time spent with the different odors (AUC) ([3]; male Adnp+/- mice, NAP vs CB vehicle, p < 0.05): significantly increased
- odor discrimination ability (novel vs. familiar odor), differences between experimental groups ([3]; males): no significant differences were observed between experimental groups
- hanging wire test, latency to fall ([4]; female Adnp+/- mice (Supplemental Fig. S2F)): ameliorating this behavior
- hanging wire test, latency to fall ([4]; male Adnp+/- mice, maximum time 90 sec): amelioration
- hippocampal mean diffusivity (MD), NAP- vs CB-treated ([5]; male Adnp+/+ mice (Supplemental Fig. S3A)): no significant differences in MD
- hippocampal fractional anisotropy (FA) ([5]; male Adnp+/+ mice (Supplemental Fig. S3B)): not affected
- hippocampal mean diffusivity (MD), effect on increase in Adnp+/- ([5]; male Adnp+/- mice, 7-8 months old, -1.84 mm from Bregma, n = 4-6 per group): although insignificant, was slightly reduced
- cerebral cortex VGLUT1 expression (reduced in Adnp+/-) ([6]; female Adnp+/- mice, n = 3-4 per group (Supplemental Fig. S4B)): no effect
- hippocampal VGLUT1 gene expression ([6]; females, n = 3-4 per group (Supplemental Fig. S4A)): not affected
- VGLUT1 transcript, cerebral cortex ([6]; male Adnp+/- mice, 2^-ΔCT normalized to Hprt, n = 4 per group): small, albeit significant decrease
- Slc17a7 (VGLUT1) gene expression, hippocampus (decrease in Adnp+/-) ([6]; male Adnp+/- mice, 7.5-month-old, 2^-ΔCT normalized to Hprt, n = 4 per group): completely reversed
- VGLUT1 protein, intensity (Integrated Density), cortex [7]: trend of improvement
- VGLUT1 protein, area counting (area/mm^2), hippocampus ([7]; five animals per group, technical replicates, p < 0.001 vs CB): full protection
- VGLUT1 protein, area counting (area/mm^2), cerebral cortex ([7]; five animals per group, technical replicates, p < 0.05 vs CB): full protection
- VGLUT1 protein, intensity (Integrated Density), hippocampus ([7]; p < 0.001 vs CB): significant
- cognitive scores ([8]; amnestic mild cognitive impairment patients): increase in cognitive scores
- functional activities of daily living ([8]; schizophrenia patients): protection of functional activities of daily living
- efficacy in progressive supranuclear palsy (PSP) ([8]; severely affected individuals suffering from PSP): did not show efficacy

Substance: SKIP
- impaired axonal transport [9]: ameliorated
